From patent US20250195513A1, “DEGRADATION OF IRAK4 BY CONJUGATION OF IRAK4 INHIBITORS WITH E3 LIGASE LIGAND AND METHODS OF USE” (BeiGene, Ltd., priority 2022, published 2025)
Read-outs that look alike come from different tables or passages of the source.

Molecular target: T1, IRAK4 (Homo sapiens, UniProt Q9NWZ3)
T1 construct: endogenous in cells; host or cells: Karpas299
T1 sequence (Q9NWZ3 1-460): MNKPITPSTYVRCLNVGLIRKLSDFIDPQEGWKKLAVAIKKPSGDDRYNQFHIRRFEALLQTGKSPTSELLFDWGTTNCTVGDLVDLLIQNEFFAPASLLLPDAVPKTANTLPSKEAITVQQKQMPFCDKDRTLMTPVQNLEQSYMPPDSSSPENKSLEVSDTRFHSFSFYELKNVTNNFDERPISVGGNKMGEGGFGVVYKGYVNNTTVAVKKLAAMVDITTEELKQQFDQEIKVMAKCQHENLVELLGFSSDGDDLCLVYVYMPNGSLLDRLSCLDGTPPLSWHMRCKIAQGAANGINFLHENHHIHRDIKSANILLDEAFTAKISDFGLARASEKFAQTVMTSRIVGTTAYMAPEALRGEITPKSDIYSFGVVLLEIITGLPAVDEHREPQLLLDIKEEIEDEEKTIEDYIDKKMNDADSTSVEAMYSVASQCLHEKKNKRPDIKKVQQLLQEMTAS
Experiment: IRAK4 Degradation Assay (Karpas299, HTRF/TR-FRET)
Assay type: cell-based
Conditions: Karpas-299 cells; for Dmax: maximum percentage of degradation
Outline: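 Karpas299 cells at 0.2 million per well were exposed to serially diluted compounds for 24 h or 5 h, then lysed. IRAK4 remaining in lysates was quantified by HTRF (665/620 nm) after overnight antibody incubation at room temperature. Percent degradation was fitted to a four-parameter curve to give IC50 (DC50).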

[1] = 24 h treatment, read-out: IRAK4 in Karpas-299 (24 h) Dmax (%)
[2] = 24 h treatment, read-out: IRAK4 in Karpas-299 (24 h) DC50
[3] = 5 h treatment, read-out: IRAK4 in Karpas-299 (5 h) Dmax (%)
[4] = 5 h treatment, read-out: IRAK4 in Karpas-299 (5 h) DC50

CC(C)(O)c1cc2nn([C@H]3CC[C@H](N4CCN(C(=O)N5CCN(c6cc(F)c([C@H]7CCC(=O)NC7=O)c(F)c6)CC5)CC4)CC3)cc2cc1NC(=O)c1ccc2cc(C#N)cnn12 [Example 225, 3-cyano-N-(2-((1r,4r)-4-(4-(4-(4-((R)-2,6-dioxopiperidin-3-yl)-3,5-difluorophenyl)piperazine-1-carbonyl)piperazin-1-yl)cyclohexyl)-6-(2-hydroxypropan-2-yl)-2H-indazol-5-yl)pyrrolo[1,2-b]pyridazine-7-carboxamide]
Dmax [1]: 97%
DC50 [2]: 1 nM

O=C1CC[C@H](c2c(F)cc(N3CC(C(=O)N4CCN([C@H]5CC[C@H](n6cc(NC(=O)c7cnn(-c8ccnc(NCC(F)(F)F)c8)n7)c(C(F)F)n6)CC5)CC4)C3)cc2F)C(=O)N1 [Example 51, N-(3-(difluoromethyl)-1-((1r,4r)-4-(4-(1-(4-((R)-2,6-dioxopiperidin-3-yl)-3,5-difluorophenyl)azetidine-3-carbonyl)piperazin-1-yl)cyclohexyl)-1H-pyrazol-4-yl)-2-(2-((2,2,2-trifluoroethyl)amino)pyridin-4-yl)-2H-1,2,3-triazole-4-carboxamide]
Dmax [3]: 93%
DC50 [4]: 4.8 nM
Dmax [1]: 96%
DC50 [2]: 1.2 nM

N#Cc1cnc2c(C(=O)Nc3ccc4nn([C@H]5CC[C@H](N6CCN(C7CN(c8cc(F)c([C@H]9CCC(=O)NC9=O)c(F)c8)C7)CC6)CC5)cc4c3)cnn2c1 [Example 424, 6-cyano-N-(2-((1R,4r)-4-(4-(1-(4-((R)-2,6-dioxopiperidin-3-yl)-3,5-difluorophenyl)azetidin-3-yl)piperazin-1-yl)cyclohexyl)-2H-indazol-5-yl)pyrazolo[1,5-a]pyrimidine-3-carboxamide]
Dmax [1]: 42%
DC50 [2]: > 1000 nM

CC(C)(O)c1cc2nn([C@H]3CC[C@H](N4CCN(C(=O)C5CN(c6ccc(N7CCC(=O)NC7=O)cc6)C5)CC4)CC3)cc2cc1NC(=O)c1cccc(C(F)(F)F)n1 [Example 40, N-(2-((1r,4r)-4-(4-(1-(4-(2,4-dioxotetrahydropyrimidin-1(2H)-yl)phenyl)azetidine-3-carbonyl)piperazin-1-yl)cyclohexyl)-6-(2-hydroxypropan-2-yl)-2H-indazol-5-yl)-6-(trifluoromethyl)picolinamide]
Dmax [3]: 89%
DC50 [4]: 23 nM
Dmax [1]: 99%
DC50 [2]: 0.9 nM

CC(C)(O)c1cc2nn(C3CCN([C@H]4CCN(C(=O)C5CN(c6cc(F)c([C@H]7CCC(=O)NC7=O)c(F)c6)C5)CC4(F)F)CC3)cc2cc1NC(=O)c1ccc2cc(C#N)cnn12 [Example 287, 3-cyano-N-(2-((S)-1′-(1-(4-((R)-2,6-dioxopiperidin-3-yl)-3,5-difluorophenyl)azetidine-3-carbonyl)-3′,3′-difluoro-[1,4′-bipiperidin]-4-yl)-6-(2-hydroxypropan-2-yl)-2H-indazol-5-yl)pyrrolo[1,2-b]pyridazine-7-carboxamide]
Dmax [1]: 94%
DC50 [2]: 1.9 nM

O=C1CCN(c2ccc(N3CC[C@H](C(=O)N4CCN([C@H]5CC[C@H](n6cc(NC(=O)c7coc(-c8ccnc(NCC(F)(F)F)c8)n7)c(C(F)F)n6)CC5)CC4)C3)cc2)C(=O)N1 [Example 15, N-(3-(difluoromethyl)-1-((1S,4r)-4-(4-((S)-1-(4-(2,4-dioxotetrahydropyrimidin-1(2H)-yl)phenyl)pyrrolidine-3-carbonyl)piperazin-1-yl)cyclohexyl)-1H-pyrazol-4-yl)-2-(2-((2,2,2-trifluoroethyl)amino)pyridin-4-yl)oxazole-4-carboxamide]
Dmax [1]: 30%
DC50 [2]: > 10000 nM

NC(=O)c1nn([C@H]2CC[C@H](N3CCN(C(=O)C4CN(c5cc(F)c([C@H]6CCC(=O)NC6=O)c(F)c5)C4)CC3)CC2)cc1NC(=O)c1coc(-c2ccnc(NCC(F)(F)F)c2)n1 [Example 11, N-(3-carbamoyl-1-((1r,4r)-4-(4-(1-(4-((R)-2,6-dioxopiperidin-3-yl)-3,5-difluorophenyl)azetidine-3-carbonyl)piperazin-1-yl)cyclohexyl)-1H-pyrazol-4-yl)-2-(2-((2,2,2-trifluoroethyl)amino)pyridin-4-yl)oxazole-4-carboxamide]
Dmax [3]: 94%
DC50 [4]: 2.4 nM
Dmax [1]: 97%
DC50 [2]: 1.6 nM

NC(=O)c1nn(-c2ccc(N3CCN(C(=O)C4CN(c5ccc(N6CCC(=O)NC6=O)cc5)C4)CC3)nc2)cc1NC(=O)c1coc(-c2ccnc(NCC(F)(F)F)c2)n1 [Example 28, N-(3-carbamoyl-1-(6-(4-(1-(4-(2,4-dioxotetrahydropyrimidin-1(2H)-yl)phenyl)azetidine-3-carbonyl)piperazin-1-yl)pyridin-3-yl)-1H-pyrazol-4-yl)-2-(2-((2,2,2-trifluoroethyl)amino)pyridin-4-yl)oxazole-4-carboxamide]
Dmax [1]: 96%
DC50 [2]: 2.5 nM

O=C1CC[C@H](c2c(F)cc(N3CCC(CN4CCN([C@H]5CC[C@H](n6cc(NC(=O)c7coc(-c8ccnc(NCC(F)(F)F)c8)n7)c(C(F)F)n6)CC5)CC4)CC3)cc2F)C(=O)N1 [Example 20, N-(3-(difluoromethyl)-1-((1r,4r)-4-(4-((1-(4-((R)-2,6-dioxopiperidin-3-yl)-3,5-difluorophenyl)piperidin-4-yl)methyl)piperazin-1-yl)cyclohexyl)-1H-pyrazol-4-yl)-2-(2-((2,2,2-trifluoroethyl)amino)pyridin-4-yl)oxazole-4-carboxamide]
Dmax [1]: 97%
DC50 [2]: 4.8 nM

CC(C)(O)c1cc2nn([C@H]3CC[C@H](N4CCN(C(=O)/C=C/C56CC7CC(CC(C7)C5)C6)CC4)CC3)cc2cc1NC(=O)c1ccc2cc(C#N)cnn12 [Example 441, N-(2-((1r,4r)-4-(4-((E)-3-(adamantan-1-yl)acryloyl)piperazin-1-yl)cyclohexyl)-6-(2-hydroxypropan-2-yl)-2H-indazol-5-yl)-3-cyanopyrrolo[1,2-b]pyridazine-7-carboxamide]
Dmax [1]: 4%
DC50 [2]: > 1000 nM

CC(C)(O)c1cc2nn(C3CCN(C4CCN(C(=O)[C@H]5CCN(c6ccc(N7CCC(=O)NC7=O)cc6)C5)CC4)CC3)cc2cc1NC(=O)c1cccc(C(F)(F)F)n1 [Example 163, (S)—N-(2-(1′-(1-(4-(2,4-dioxotetrahydropyrimidin-1(2H)-yl)phenyl)pyrrolidine-3-carbonyl)-[1,4′-bipiperidin]-4-yl)-6-(2-hydroxypropan-2-yl)-2H-indazol-5-yl)-6-(trifluoromethyl)picolinamide]
Dmax [1]: 95%
DC50 [2]: 3.8 nM

O=C1CC[C@H](c2c(F)cc(N3CC[C@@H](C(=O)N4CCN([C@H]5CC[C@H](n6cc7cc(NC(=O)c8cccc(C(F)(F)F)n8)c(C(=O)N[C@H]8C[C@H](CO)C8)cc7n6)CC5)CC4)C3)cc2F)C(=O)N1 [Example 168, 2-((1R,4R)-4-(4-((R)-1-(4-((R)-2,6-dioxopiperidin-3-yl)-3,5-difluorophenyl)pyrrolidine-3-carbonyl)piperazin-1-yl)cyclohexyl)-N-((1r,3R)-3-(hydroxymethyl)cyclobutyl)-5-(6-(trifluoromethyl)picolinamido)-2H-indazole-6-carboxamide]
Dmax [3]: 87%
DC50 [4]: 5.2 nM
Dmax [1]: 100%
DC50 [2]: 1.3 nM

O=C1CCN(c2ccc(N3CCC(N4CCN([C@H]5CC[C@H](n6cc(NC(=O)c7coc(-c8ccnc(NCC(F)(F)F)c8)n7)c(C(F)F)n6)CC5)CC4)C3)cc2)C(=O)N1 (stereo partly shown) [Example 21, N-(3-(difluoromethyl)-1-((1r,4r)-4-(4-(1-(4-(2,4-dioxotetrahydropyrimidin-1(2H)-yl)phenyl)pyrrolidin-3-yl)piperazin-1-yl)cyclohexyl)-1H-pyrazol-4-yl)-2-(2-((2,2,2-trifluoroethyl)amino)pyridin-4-yl)oxazole-4-carboxamide]
Dmax [1]: 98%
DC50 [2]: 4.4 nM

O=C1CC[C@H](c2c(F)cc(N3CC(CN4CCN([C@H]5CC[C@H](n6cc(NC(=O)c7coc(-c8ccnc(NCC(F)(F)F)c8)n7)c(C(F)F)n6)CC5)CC4)C3)cc2F)C(=O)N1 [Example 19, N-(3-(difluoromethyl)-1-((1r,4r)-4-(4-((1-(4-((R)-2,6-dioxopiperidin-3-yl)-3,5-difluorophenyl)azetidin-3-yl)methyl)piperazin-1-yl)cyclohexyl)-1H-pyrazol-4-yl)-2-(2-((2,2,2-trifluoroethyl)amino)pyridin-4-yl)oxazole-4-carboxamide]
Dmax [1]: 95%
DC50 [2]: 1 nM

CC(C)(O)c1cc2nn([C@H]3CC[C@H](N4CCN(C(=O)[C@@H]5CCN(c6cc(F)c([C@H]7CCC(=O)NC7=O)c(F)c6)C5)CC4)CC3)cc2cc1NC(=O)c1cccc(C(F)(F)F)n1 [Example 39, N-(2-((1R,4r)-4-(4-((R)-1-(4-((R)-2,6-dioxopiperidin-3-yl)-3,5-difluorophenyl)pyrrolidine-3-carbonyl)piperazin-1-yl)cyclohexyl)-6-(2-hydroxypropan-2-yl)-2H-indazol-5-yl)-6-(trifluoromethyl)picolinamide]
Dmax [3]: 96%
DC50 [4]: 4.6 nM
Dmax [1]: 99%
DC50 [2]: 0.8 nM
